Test results published in patent US20250304608A1, “PHOSPHORUS COMPOUND AND USE THEREOF” (SHANGHAI SHIJIANG BIOTECHNOLOGY CO., LTD., priority 2022, published 2025).
Where two headings read alike, the source gives them in different places.

How the values were obtained:
Assay type in all cases: cell-based
[1] = test system: mPTP-active Daoy cell; experiment: CellTiter-Glo cell viability inhibition, mPTP-active Daoy cell; details: Homo sapiens
[2] = test system: ov-NNMT NCI-H82 cell; experiment: CellTiter-Glo cell viability inhibition, ov-NNMT NCI-H82 cell; details: Homo sapiens, NCI-H82 cell overexpressing NNMT protein
Text: (§1) The expression of NNMT protein in NCI-H82 cell was overexpressed by inserting the NNMT gene into NCI-H82 cell using a viral vector, and the NNMT protein-overexpressing NCI-H82 cell (ov-NNMT NCI-H82 cell) was obtained. The control NCI-H82 cell (Con-NCI-H82 cell) was obtained by transfecting NCI-H82 cell with empty virus vector without carrying NNMT gene. The expressing content of NNMT protein in the Con-NCI-H82 cell and ov-NNMT NCI-H82 cell was detected using Western Blot assay (as shown in FIG. 3), it could be seen from FIG. 3 that the NNMT protein was overexpressed in the ov-NNMT NCI-H82 cell compared with the expression level of NNMT protein in the Con-NCI-H82 cell.

[3] = test system: Con-NCI-H82 cell; experiment: CellTiter-Glo cell viability inhibition, Con-NCI-H82 cell; details: Homo sapiens, NCI-H82 cell transfected with empty virus vector
Text: as §1

[4] = test system: mPTP-inactive Daoy cell; experiment: CellTiter-Glo cell viability inhibition, mPTP-inactive Daoy cell; details: Homo sapiens, Daoy cell transfected with PPIF shRNA vector
[5] = Daoy cell transfected with empty virus vector, CellTiter-Glo, read-out: mPTP-active Daoy cell (IC50)

Row | Structure (SMILES) | IC50 [1, 5] | IC50 [2] | IC50 [3] | IC50 [4] | IC50 ([1]; Daoy, read-out: mPTP-active Daoy cell (IC50, μM))
1 | c1ccc([P+](c2ccccc2)(c2cccc3[nH]ccc23)c2cccc3[nH]cnc23)cc1 [AB35572] | 10.3 µM | 1.95 µM | 0.28 µM | 3.34 µM | –
2 | c1ccc([P+](c2ccccc2)(c2ccc3cc[nH]c3c2)c2ccc3nc[nH]c3c2)cc1 [AB35548] | 8.09 µM | 7.14 µM | 2.22 µM | 2.64 µM | –
3 | c1ccc([P+](c2ccccc2)(c2ccc3[nH]ccc3c2)c2ccc3[nH]cnc3c2)cc1 [AB35539] | 12.2 µM | 6.03 µM | 1.55 µM | 3.88 µM | –
4 | COc1ccc([P+](c2ccc(OC)cc2)(c2cccc3[nH]ncc23)c2cccc3[nH]ncc23)cc1 [AB36516] | 33.1 µM | 17.9 µM | 6.47 µM | 9.58 µM | –
5 | c1ccc([P+](c2ccccc2)(c2ccc3cc[nH]c3c2)c2ccc3cc[nH]c3c2)cc1 [AB35437] | 0.92 µM | 1.21 µM | 0.27 µM | 0.3 µM | –
6 | c1ccc([P+](c2ccccc2)(c2ccccc2)c2cccc3[nH]cnc23)cc1 [AB36504] | 25.3 µM | 10.7 µM | 3.38 µM | 5.12 µM | –
7 | c1ccc([P+](c2ccccc2)(c2ccc3cc[nH]c3n2)c2cccc3[nH]ccc23)cc1 [AB35589] | 1.53 µM | 2.34 µM | 0.32 µM | 0.36 µM | –
8 | c1ccc([P+](c2ccccc2)(c2cccnc2)c2ccc3[nH]ccc3c2)cc1 [AB35473] | 18.1 µM | 12.3 µM | 3.27 µM | 2.95 µM | –
9 | COc1ccc([P+](c2ccc(OC)cc2)(c2cccc3nn(C)cc23)c2cccc3c2ccn3C)cc1 [AB36444] | 1.99 µM | 3.91 µM | 0.86 µM | 0.55 µM | –
10 | COc1ccc([P+](c2ccc(OC)cc2)(c2cccc3c2cnn3C)c2cccc3c2cnn3C)cc1 [AB36439] | 4.36 µM | 7.83 µM | 3.07 µM | 1.29 µM | –
11 | CCCCCCCCCCCC[P+](c1ccccc1)(c1ccccc1)c1ccccc1 [SJ00005] | – | 0.17 µM | 0.19 µM | 0.33 µM | 0.32 µM
12 | Cn1ccc2c([P+](c3ccccc3)(c3ccccc3)c3cccc4[nH]ncc34)cccc21 [AB35577] | 3.89 µM | 4.54 µM | 1.08 µM | 1.21 µM | –
13 | c1ccc([P+](c2ccccc2)(c2ccccc2)c2cccc3c2ccn3CCN2CCCCC2)cc1 [AB35579] | 1.21 µM | 2.77 µM | 0.51 µM | 0.27 µM | –
14 | c1ccc([P+](c2ccccc2)(c2cccc3[nH]ccc23)c2cccc3[nH]ccc23)cc1 [AB35419] | 0.74 µM | 0.56 µM | 0.05 µM | 0.15 µM | –
15 | COc1ccc([P+](c2ccc(OC)cc2)(c2cccc3[nH]ccc23)c2cccc3[nH]ccc23)cc1 [AB35596] | 1.32 µM | 1.56 µM | 0.25 µM | 0.25 µM | –
16 | c1ccc([P+](c2ccccc2)(c2ccccc2)c2cccc3occc23)cc1 [AB36521] | 2.45 µM | 1.92 µM | 0.47 µM | 0.75 µM | –
17 | COc1ccc([P+](c2ccc(OC)cc2)(c2ccnc3c2ccn3C)c2ccnc3c2ccn3C)cc1 [AB36448] | 7.24 µM | 11.3 µM | 4.23 µM | 2 µM | –
18 | c1ccc([P+](c2ccccc2)(c2cc3cc[nH]c3cn2)c2cccc3[nH]ccc23)cc1 [AB35588] | 1.14 µM | 1.78 µM | 0.21 µM | 0.38 µM | –
19 | COc1ccc([P+](c2ccc(OC)cc2)(c2cccc3c2ccn3C)c2cccc3c2cnn3C)cc1 [AB36438] | 1.03 µM | 1.53 µM | 0.32 µM | 0.24 µM | –
20 | c1ccc([P+](c2ccccc2)(c2ccc3cc[nH]c3c2)c2ccccn2)cc1 [AB35507] | 4.08 µM | 3.96 µM | 0.78 µM | 1.73 µM | –
21 | c1ccc([P+](c2ccccc2)(c2ccccc2)c2cccc3c2ccn3CCN2CCOCC2)cc1 [AB35585] | 3.54 µM | 3.34 µM | 0.52 µM | 1.22 µM | –
22 | c1ccc([P+](c2ccccc2)(c2ccccc2)c2ccc3cc[nH]c3c2)cc1 [AB35431] | 2 µM | 1.03 µM | 0.32 µM | 0.65 µM | –
23 | c1ccc([P+](c2ccccc2)(c2ccc3[nH]cnc3c2)c2cccc3[nH]ccc23)cc1 [AB35569] | 12.2 µM | 5.34 µM | 1.66 µM | 2.34 µM | –
24 | COc1ccc([P+](c2ccc(OC)cc2)(c2cccc3c2ccn3C)c2cccc3c2ccn3C)cc1 [AB36420] | 1.09 µM | 0.98 µM | 0.14 µM | 0.19 µM | –

Row | Structure (SMILES) | IC50 [1, 5] | IC50 [2] | IC50 [3] | IC50 [4] | IC50 ([1]; Daoy, read-out: mPTP-active Daoy cell (IC50, μM))
25 | c1ccc([P+](c2ccccc2)(c2ccccc2)c2cccc3[nH]ncc23)cc1 [AB35481] | 16.7 µM | 9.82 µM | 2.45 µM | 2.5 µM | –
26 | c1ccc([P+](c2ccccc2)(c2cccc3[nH]ccc23)c2ccnc3[nH]ccc23)cc1 [AB35471] | 4.35 µM | 2.16 µM | 0.34 µM | 0.81 µM | –
27 | c1ccc([P+](c2ccccc2)(c2ccccc2)c2cccc3[nH]ccc23)cc1 [AB35450] | 0.43 µM | 1.56 µM | 0.23 µM | 0.1 µM | –
28 | COc1ccc([P+](c2ccc(OC)cc2)(c2cc3cc[nH]c3cn2)c2cccc3[nH]ccc23)cc1 [AB36453] | 1.85 µM | 1.62 µM | 0.35 µM | 0.29 µM | –
29 | c1ccc([P+](c2ccccc2)(c2cccc3[nH]ccc23)c2cccc3cn[nH]c23)cc1 [AB36514] | 10.2 µM | 1.35 µM | 0.26 µM | 1.19 µM | –
30 | c1ccc([P+](c2ccccc2)(c2cncc3[nH]ccc23)c2cncc3[nH]ccc23)cc1 [AB35477] | 24.2 µM | > 50 µM | 25.3 µM | 10.3 µM | –
31 | c1ccc([P+](c2ccccc2)(c2cccc3cc[nH]c23)c2cccc3cc[nH]c23)cc1 [AB35462] | 28.9 µM | 20.6 µM | 6.48 µM | 12.7 µM | –
32 | c1ccc([P+](c2ccccc2)(c2ccc3[nH]ccc3c2)c2ccc3[nH]ccc3n2)cc1 [AB35597] | 1.18 µM | 1.85 µM | 0.18 µM | 0.24 µM | –
33 | c1ccc([P+](c2ccccc2)(c2ccc3[nH]ncc3c2)c2cccc3[nH]ccc23)cc1 [AB35580] | 4.57 µM | 3.66 µM | 0.55 µM | 1.16 µM | –
34 | c1ccc([P+](CC[P+](c2ccccc2)(c2ccccc2)c2ccccc2)(c2ccccc2)c2ccccc2)cc1 [SJ00003] | 4.91 µM | 2.98 µM | 3.24 µM | 5.18 µM | –
35 | c1ccc([P+](c2ccccc2)(c2ccc3[nH]ccc3n2)c2cccc3[nH]ccc23)cc1 [AB35584] | 1.34 µM | 1.73 µM | 0.24 µM | 0.46 µM | –
36 | c1ccc([P+](c2ccccc2)(c2ccc3[nH]ccc3c2)c2ccc3[nH]ncc3c2)cc1 [AB35529] | 4.11 µM | 1.87 µM | 0.38 µM | 0.88 µM | –
37 | c1ccc([P+](c2ccccc2)(c2ccccc2)c2cccc3sccc23)cc1 [AB36535] | 1.56 µM | 2.32 µM | 0.46 µM | 0.37 µM | –
38 | c1ccc([P+](c2ccccc2)(c2cnc3cc[nH]c3c2)c2cccc3[nH]ccc23)cc1 [AB35570] | 15.7 µM | 11.8 µM | 3.34 µM | 3.99 µM | –
39 | c1ccc([P+](c2ccccc2)(c2ccccc2)c2ccoc2)cc1 [AB36533] | 11.9 µM | 8.97 µM | 3.09 µM | 3.52 µM | –
40 | COc1ccc([P+](c2ccc(OC)cc2)(c2cccc3c2ccn3C)c2ccnc3c2ccn3C)cc1 [AB36407] | 1.13 µM | 1.55 µM | 0.24 µM | 0.24 µM | –
41 | c1ccc([P+](c2ccccc2)(c2ccc3cn[nH]c3c2)c2cccc3[nH]ccc23)cc1 [AB35581] | 5.34 µM | 4.81 µM | 1.26 µM | 1.74 µM | –
42 | [C-]#[N+]N=P(c1ccccc1)(c1ccccc1)c1ccccc1 [SJ00004] | 9.01 µM | 5.32 µM | 5.51 µM | 7.99 µM | –
43 | c1ccc(P(=[N+]=P(c2ccccc2)(c2ccccc2)c2ccccc2)(c2ccccc2)c2ccccc2)cc1 [SJ00002] | 0.44 µM | 0.21 µM | 0.18 µM | 0.46 µM | –
44 | Cn1ccc2c([P+](c3ccccc3)(c3ccccc3)c3cccc4c3cnn4C)cccc21 [AB35578] | 3.8 µM | 4.93 µM | 1.27 µM | 1.45 µM | –
45 | c1ccc([P+](c2ccccc2)(c2ccccc2)c2cscn2)cc1 [AB36537] | 14.4 µM | 8.16 µM | 3.97 µM | 3.55 µM | –
46 | c1ccc([P+](c2ccccc2)(c2ccccc2)c2cccc3scnc23)cc1 [AB36534] | 3.66 µM | 5.11 µM | 1.35 µM | 1.21 µM | –
47 | COc1ccc([P+](c2ccc(OC)cc2)(c2ccnc3c2ccn3C)c2cccc3c2cnn3C)cc1 [AB36449] | 2.16 µM | 5.91 µM | 1.49 µM | 0.57 µM | –
